According to PubChem BioAssay (NCI):
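Step 1: Grow cells in 96-well plates. Step 2: Expose to compound for 48 hours at 5 concentrations. Step 3: Interpolate endpoints linearly; if unreached, use highest concentration. TGI: total growth inhibition.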

Legend:
Assay in all cases: growth of human tumour cells (NCI), 48 h
[1] = system: 786-0 renal
[2] = system: A498 renal
[3] = system: A549 NSCLC
[4] = system: ACHN renal
[5] = system: BT-549 breast
[6] = system: CAKI-1 renal
[7] = system: CCRF-CEM leukemia
[8] = system: COLO 205 colon
[9] = system: DU-145 prostate
[10] = system: EKVX NSCLC
[11] = system: HCC-2998 colon
[12] = system: HCT-116 colon
[13] = system: HCT-15 colon
[14] = system: HL-60(TB) leukemia
[15] = system: HOP-62 NSCLC
[16] = system: HS 578T breast
[17] = system: HT29 colon
[18] = system: IGROV1 ovarian
[19] = system: K-562 leukemia
[20] = system: KM12 colon
[21] = system: LOX IMVI melanoma
[22] = system: M14 melanoma
[23] = system: MALME-3M melanoma
[24] = system: MCF7 breast
[25] = system: MDA-MB-231 breast
[26] = system: MDA-MB-435
[27] = system: MDA-N
[28] = system: MOLT-4 leukemia
[29] = system: NCI-H226 lung
[30] = system: NCI-H23 lung
[31] = system: NCI-H460 lung
[32] = system: NCI-H522 lung
[33] = system: NCI/ADR-RES ovarian
[34] = system: OVCAR-3 ovarian
[35] = system: OVCAR-4 ovarian
[36] = system: OVCAR-5 ovarian
[37] = system: OVCAR-8 ovarian
[38] = system: PC-3 prostate
[39] = system: RPMI-8226 leukemia
[40] = system: RXF 393 renal
[41] = system: SF-268 CNS
[42] = system: SF-295 CNS
[43] = system: SF-539 CNS
[44] = system: SK-MEL-2 melanoma
[45] = system: SK-MEL-28 melanoma
[46] = system: SK-MEL-5 melanoma
[47] = system: SK-OV-3 ovarian
[48] = system: SN12C renal
[49] = system: SNB-19 CNS
[50] = system: SR leukemia
[51] = system: SW-620 colon
[52] = system: T-47D breast
[53] = system: TK-10 renal
[54] = system: U251 CNS
[55] = system: UACC-257 melanoma
[56] = system: UACC-62 melanoma
[57] = system: UO-31 renal

With `CC(C)(C)C1CCC2c3c([nH]c4ccccc34)C3C(=O)N(c4ccc5c(c4)C(=O)c4ccccc4C5=O)C(=O)C3C2C1` (stereo unspecified) the TGI [1] was greater than 100 µM, the TGI [2] was greater than 100 µM and the TGI [3] was greater than 100 µM. For the same compound, the TGI [4] was greater than 100 µM, the TGI [5] was greater than 100 µM and the TGI [6] was greater than 100 µM. The TGI [7] was greater than 100 µM, the TGI [8] was greater than 100 µM and the TGI [9] was greater than 100 µM. The TGI [10] was greater than 100 µM, the TGI [11] was greater than 100 µM and the TGI [12] was greater than 100 µM. For the same compound, the TGI [13] was greater than 100 µM, the TGI [14] was greater than 100 µM and the TGI [15] was greater than 100 µM. For the same compound, the TGI [16] was greater than 100 µM, the TGI [17] was greater than 100 µM and the TGI [18] was greater than 100 µM. For the same compound, the TGI [19] was greater than 100 µM, the TGI [20] was greater than 100 µM and the TGI [21] was greater than 100 µM. For the same compound, the TGI [22] was greater than 100 µM, the TGI [23] was greater than 100 µM and the TGI [24] was greater than 100 µM. For the same compound, the TGI [25] was greater than 100 µM, the TGI [26] was greater than 100 µM and the TGI [27] was greater than 100 µM. It also gave a TGI [28] greater than 100 µM, a TGI [29] greater than 100 µM and a TGI [30] greater than 100 µM. For the same compound, the TGI [31] was greater than 100 µM, the TGI [32] was greater than 100 µM and the TGI [33] was greater than 100 µM. For the same compound, the TGI [34] was greater than 100 µM, the TGI [35] was greater than 100 µM and the TGI [36] was greater than 100 µM. For the same compound, the TGI [37] was greater than 100 µM, the TGI [38] was greater than 100 µM and the TGI [39] was greater than 100 µM. It also gave a TGI [40] greater than 100 µM, a TGI [41] greater than 100 µM and a TGI [42] greater than 100 µM. The TGI [43] was greater than 100 µM, the TGI [44] was greater than 100 µM and the TGI [45] was greater than 100 µM. It also gave a TGI [46] greater than 100 µM, a TGI [47] greater than 100 µM and a TGI [48] greater than 100 µM. It also gave a TGI [49] greater than 100 µM, a TGI [50] greater than 100 µM and a TGI [51] greater than 100 µM. For the same compound, the TGI [52] was greater than 100 µM, the TGI [53] was greater than 100 µM and the TGI [54] was greater than 100 µM. For the same compound, the TGI [55] was greater than 100 µM and the TGI [56] was greater than 100 µM.

Work on `O=C(/C=C(\O)c1ccccc1)c1cc(-c2ccccc2)n(-c2ccccc2)n1` yielded a TGI [1] of 67.8 µM, a TGI [2] greater than 100 µM and a TGI [3] of 24.9 µM. The TGI [4] was 23.9 µM, the TGI [5] was 26.1 µM and the TGI [6] was 54.5 µM. For the same compound, the TGI [7] was 7.16 µM, the TGI [8] was 37.4 µM and the TGI [9] was greater than 100 µM. For the same compound, the TGI [10] was greater than 100 µM, the TGI [11] was greater than 100 µM and the TGI [12] was greater than 100 µM. For the same compound, the TGI [13] was greater than 100 µM, the TGI [14] was greater than 100 µM and the TGI [15] was 23.9 µM. It also gave a TGI [16] greater than 100 µM, a TGI [17] of 18.7 µM and a TGI [18] of 79.9 µM. For the same compound, the TGI [19] was greater than 100 µM, the TGI [20] was greater than 100 µM and the TGI [21] was greater than 100 µM. It also gave a TGI [22] of 55.7 µM, a TGI [23] of 45.5 µM and a TGI [24] greater than 100 µM. For the same compound, the TGI [25] was 64.4 µM, the TGI [26] was greater than 100 µM and the TGI [27] was greater than 100 µM. It also gave a TGI [28] of 4.51 µM, a TGI [29] of 25.2 µM and a TGI [30] greater than 100 µM. For the same compound, the TGI [31] was 98.4 µM, the TGI [32] was 42.4 µM and the TGI [33] was greater than 100 µM. For the same compound, the TGI [34] was greater than 100 µM, the TGI [36] was greater than 100 µM and the TGI [37] was 15.3 µM. It also gave a TGI [38] greater than 100 µM, a TGI [39] of 6.1 µM and a TGI [40] greater than 100 µM. For the same compound, the TGI [41] was greater than 100 µM, the TGI [42] was greater than 100 µM and the TGI [43] was 72.3 µM. The TGI [44] was greater than 100 µM, the TGI [46] was 48.7 µM and the TGI [47] was greater than 100 µM. The TGI [48] was 39.9 µM, the TGI [49] was greater than 100 µM and the TGI [50] was 5.2 µM. It also gave a TGI [51] greater than 100 µM, a TGI [52] of 37.9 µM and a TGI [53] greater than 100 µM. It also gave a TGI [54] of 62.6 µM, a TGI [55] greater than 100 µM and a TGI [56] of 13.4 µM. It also gave a TGI [57] of 39.9 µM.
